Measurements as given in patent US20230265151A1, “GIP/GLP1 CO-AGONIST COMPOUNDS” (priority 2020, published 2023).
Like-named read-outs stand apart in the source and are kept apart here. *1 amine or outer side, *2 acyl side, *3 side chain or, on linkers, in order; H or OH if unused. Where a SMILES comes first, the peptide text is derived from it. Side-chain parts run from the residue outwards. [ ]: non-standard residue; d: D form. The star is where a group is joined. αMePhe(2-F) = C[C@](N)(Cc1ccccc1F)C(=O)O; γGlu = O=C(O)[C@H](CCC(=O)[*:2])N[*:1]; C14 diacid = O=C(O)CCCCCCCCCCCCC(=O)*; αMeY = C[C@](N)(Cc1ccc(O)cc1)C(=O)O; 4Pal = N[C@@H](Cc1ccncc1)C(=O)O; αMeL = CC(C)C[C@](C)(N)C(=O)O; Orn = NCCC[C@H](N)C(=O)O; AEEA = NCCOCCOCC(=O)O; Aib = CC(C)(N)C(=O)O

Legend:
Format in all cases: cell-based
[1] = molecular target: T1, hGIPR (Homo sapiens, UniProt P48546); test: Functional cAMP formation (HTRF) in HEK-293 clonal cells expressing hGIPR, 0.1% bovine casein, without or with 1.0% human serum albumin; details: for EC50: hGIPR EC50, nM (SEM, n), geometric mean
T1 construct: expressed in transfected cells
T1 sequence (P48546 22-466): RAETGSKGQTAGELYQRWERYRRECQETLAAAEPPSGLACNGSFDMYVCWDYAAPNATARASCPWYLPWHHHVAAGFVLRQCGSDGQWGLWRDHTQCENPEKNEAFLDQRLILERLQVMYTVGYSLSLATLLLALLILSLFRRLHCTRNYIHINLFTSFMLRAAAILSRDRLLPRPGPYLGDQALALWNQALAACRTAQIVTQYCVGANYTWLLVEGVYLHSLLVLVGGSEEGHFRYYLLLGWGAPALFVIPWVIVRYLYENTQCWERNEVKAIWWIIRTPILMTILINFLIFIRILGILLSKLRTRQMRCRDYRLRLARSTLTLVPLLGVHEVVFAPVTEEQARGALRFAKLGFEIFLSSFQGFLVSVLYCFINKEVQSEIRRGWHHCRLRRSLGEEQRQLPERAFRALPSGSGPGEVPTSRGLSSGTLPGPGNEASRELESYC
Method in brief: (§1)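 Cells were stimulated with peptide for 30 min at 37° C, then lysed in buffer carrying cAMP-d2 and anti-cAMP Eu3+-cryptate for a competitive HTRF read after at least 60 min at room temperature. The 665/620 nm ratio was converted to nM cAMP against a standard curve.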

[2] = molecular target: hGLP-1R (Homo sapiens, UniProt P43220); test: Functional cAMP formation (HTRF) in HEK-293 clonal cells expressing hGLP-1R, 0.1% bovine casein, without or with 1.0% human serum albumin; parameters: expressed in transfected cells; details: for EC50: hGLP-1R EC50, nM (SEM, n), geometric mean
Sequence of hGLP-1R (P43220 24-463): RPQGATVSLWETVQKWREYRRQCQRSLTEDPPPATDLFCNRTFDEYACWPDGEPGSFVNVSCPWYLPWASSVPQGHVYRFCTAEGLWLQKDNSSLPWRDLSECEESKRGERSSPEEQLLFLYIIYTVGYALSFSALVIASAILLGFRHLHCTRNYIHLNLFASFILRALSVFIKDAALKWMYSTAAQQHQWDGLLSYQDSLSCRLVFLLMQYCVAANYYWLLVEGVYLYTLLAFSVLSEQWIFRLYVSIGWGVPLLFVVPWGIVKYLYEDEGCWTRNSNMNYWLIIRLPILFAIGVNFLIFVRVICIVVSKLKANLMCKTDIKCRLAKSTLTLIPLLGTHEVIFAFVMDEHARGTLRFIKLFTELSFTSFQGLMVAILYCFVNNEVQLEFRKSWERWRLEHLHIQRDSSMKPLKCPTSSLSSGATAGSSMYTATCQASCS
Method in brief: as §1

[3] = molecular target: T2, hGCGR (Homo sapiens, UniProt P47871); test: Functional cAMP formation (HTRF) in HEK-293 clonal cells expressing hGCGR, 0.1% bovine casein, without or with 1.0% human serum albumin; details: hGCGR EC50, nM (SEM, n)
T2 construct: expressed in transfected cells
T2 sequence (P47871 26-477): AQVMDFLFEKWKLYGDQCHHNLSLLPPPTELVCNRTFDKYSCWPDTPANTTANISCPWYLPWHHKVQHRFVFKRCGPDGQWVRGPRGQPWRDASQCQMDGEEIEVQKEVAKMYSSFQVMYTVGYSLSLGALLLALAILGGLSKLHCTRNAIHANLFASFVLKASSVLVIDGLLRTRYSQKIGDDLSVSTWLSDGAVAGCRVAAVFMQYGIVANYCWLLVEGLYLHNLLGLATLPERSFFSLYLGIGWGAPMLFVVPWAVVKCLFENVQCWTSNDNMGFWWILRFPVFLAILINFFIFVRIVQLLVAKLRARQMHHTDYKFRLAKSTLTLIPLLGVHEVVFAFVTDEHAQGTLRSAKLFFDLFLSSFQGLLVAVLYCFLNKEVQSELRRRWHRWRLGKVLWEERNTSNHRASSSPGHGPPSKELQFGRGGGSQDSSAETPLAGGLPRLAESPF
Method in brief: as §1

[4] = 0.1% bovine casein and 1.0% human serum albumin, 37° C.
[5] = cAMP, incubated at 37° C., 0.1% bovine casein (no human serum albumin)
[6] = cAMP, 37° C., 0.1% bovine casein (no human serum albumin)

`CC[C@H](C)[C@H](NC(=O)[C@H](CCCN)NC(=O)[C@H](CC(=O)O)NC(=O)[C@H](CC(C)C)NC(=O)[C@](C)(CC(C)C)NC(=O)[C@@H](NC(=O)C(C)(C)NC(=O)[C@H](Cc1ccncc1)NC(=O)[C@H](CC(=O)O)NC(=O)[C@H](CO)NC(=O)[C@@H](NC(=O)[C@](C)(Cc1ccccc1F)NC(=O)[C@@H](NC(=O)CNC(=O)[C@H](CCC(=O)O)NC(=O)C(C)(C)NC(=O)[C@@H](N)Cc1ccc(O)cc1)[C@@H](C)O)[C@@H](C)O)[C@@H](C)CC)C(=O)N[C@@H](C)C(=O)N[C@@H](CCC(N)=O)C(=O)NC(C)(C)C(=O)N[C@@H](CCCCNC(=O)COCCOCCNC(=O)COCCOCCNC(=O)CC[C@H](NC(=O)CCCCCCCCCCCCC(=O)O)C(=O)O)C(=O)N[C@@H](Cc1ccccc1)C(=O)N[C@H](C(=O)N[C@@H](CCCCNC(=O)COCCOCCNC(=O)COCCOCCNC(=O)CC[C@H](NC(=O)CCCCCCCCCCCCC(=O)O)C(=O)O)C(=O)N[C@@](C)(Cc1ccc(O)cc1)C(=O)N[C@@H](CC(C)C)C(=O)N[C@H](C(=O)N[C@@H](CCC(=O)O)C(=O)NCC(=O)NCC(=O)N1CCC[C@H]1C(=O)N[C@@H](CO)C(=O)N[C@@H](CO)C(=O)NCC(=O)N[C@@H](C)C(=O)N1CCC[C@H]1C(=O)N1CCC[C@H]1C(=O)N1CCC[C@H]1C(=O)N[C@@H](CO)C(N)=O)[C@@H](C)CC)[C@@H](C)CC` [Example 218] (H-Y[Aib]EGT[αMePhe(2-F)]TSD[4Pal][Aib]I[αMeL]LD[Orn]IAQ[Aib]K([AEEA-AEEA-γGlu-C14 diacid])FIK([AEEA-AEEA-γGlu-C14 diacid])[αMeY]LIEGGPSSGAPPPS-NH2; N-terminus assumed) gave an Emax ([1]; HEK293, read-out: hGIPR Emax, % ± SEM, 0.1% bovine casein and 1.0% human serum albumin, 37° C., percent of maximal response to GIP(1-42)NH2) of 95.9%, an Emax ([1]; HEK293, read-out: hGIPR Emax, % ± SEM, percent of maximal response to GIP(1-42)NH2, 37° C., 0.1% bovine casein, arithmetic mean) of 90.2% and an EC50 [1, 4] of 3.27 nM. The EC50 [1, 5] was 0.0515 nM, the Emax ([2]; HEK293, read-out: hGLP-1R Emax, % ± SEM, 0.1% bovine casein and 1.0% human serum albumin, 37° C., percent of maximal response to GLP-1(7-36)NH2) was 121% and the Emax ([2]; HEK293, read-out: hGLP-1R Emax, % ± SEM, percent of maximal response to GLP-1(7-36)NH2, 37° C., 0.1% bovine casein, arithmetic mean) was 92.6%. The EC50 [2, 4] was 36.6 nM, the EC50 [2, 5] was 0.714 nM and the EC50 ([3]; 0.1% bovine casein and 1.0% human serum albumin, 37° C., geometric mean) was > 9950 nM. The EC50 ([3]; cAMP, incubated at 37° C., 0.1% bovine casein (no human serum albumin), geometric mean) was > 9950 nM.
Molecule `CC[C@H](C)[C@H](NC(=O)[C@H](CCCN)NC(=O)[C@H](CC(=O)O)NC(=O)[C@H](CC(C)C)NC(=O)[C@](C)(CC(C)C)NC(=O)[C@@H](NC(=O)C(C)(C)NC(=O)[C@@H](NC(=O)[C@H](CC(=O)O)NC(=O)[C@H](CO)NC(=O)[C@@H](NC(=O)[C@](C)(Cc1ccccc1F)NC(=O)[C@@H](NC(=O)CNC(=O)[C@H](CCC(=O)O)NC(=O)C(C)(C)NC(=O)[C@@H](N)Cc1ccc(O)cc1)[C@@H](C)O)[C@@H](C)O)C(C)C)[C@@H](C)CC)C(=O)N[C@@H](C)C(=O)N[C@@H](CCC(N)=O)C(=O)NC(C)(C)C(=O)N[C@@H](CCC(=O)O)C(=O)N[C@@H](Cc1ccccc1)C(=O)N[C@H](C(=O)N[C@@H](CCCCNC(=O)COCCOCCNC(=O)COCCOCCNC(=O)COCCOCCNC(=O)CC[C@H](NC(=O)CCCCCCCCCOc1ccc(C(=O)O)cc1)C(=O)O)C(=O)N[C@@](C)(Cc1ccc(O)cc1)C(=O)N[C@@H](CC(C)C)C(=O)N[C@H](C(=O)N[C@@H](CCCCNC(=O)COCCOCCNC(=O)COCCOCCNC(=O)COCCOCCNC(=O)CC[C@H](NC(=O)CCCCCCCCCOc1ccc(C(=O)O)cc1)C(=O)O)C(=O)NCC(=O)NCC(=O)N1CCC[C@H]1C(=O)N[C@@H](CO)C(=O)N[C@@H](CO)C(=O)NCC(=O)N[C@@H](C)C(=O)N1CCC[C@H]1C(=O)N1CCC[C@H]1C(=O)N1CCC[C@H]1C(=O)N[C@@H](CO)C(N)=O)[C@@H](C)CC)[C@@H](C)CC` [Example 347] has an Emax ([1]; HEK293, read-out: hGIPR Emax, % ± SEM, cAMP, 37° C., 0.1% bovine casein and 1.0% human serum albumin, percent of maximal response to GIP(1-42)NH2) of 84.6%, an Emax ([1]; HEK293, read-out: hGIPR Emax, % ± SEM, cAMP, 37° C., 0.1% bovine casein, percent of maximal response to GIP(1-42)NH2, arithmetic mean) of 98% and an EC50 [1, 6] of 0.0259 nM. For the same molecule, the EC50 [2, 6] was 0.356 nM, the EC50 ([3]; cAMP, 37° C., 0.1% bovine casein (no human serum albumin), geometric mean) was > 9950 nM and the EC50 ([3]; cAMP, 37° C., 0.1% bovine casein and 1.0% human serum albumin, geometric mean (SEM, n)) was > 9950 nM.
